Source: patent US12521342B2, “Fast disintegrating tablet” (CUBOPHARM PTY LTD, priority 2017, dated 2026)
Like-named read-outs stand apart in the source and are kept apart here.

Legend:
[1] = pig, pH 7.4
[2] = cited from earlier work

SMILES | Total rosuvastatin absorbed per minute ([1]; 0.4 mg/1.5 ml) | Total rosuvastatin absorbed per minute ([1]; 0.8 mg/1.5 ml) | logP [2]
CC(C)c1nc(N(C)S(C)(=O)=O)nc(-c2ccc(F)cc2)c1/C=C/[C@@H](O)C[C@@H](O)CC(=O)O [Rosuvastatin] | 0.6 ng/mL | 0.3 ng/mL | 
CNCC(O)c1ccc(O)c(O)c1 (stereo not drawn) [Adrenaline] |  |  | −0.5 to −1.2
